Test results taken from US20190046536A1, “Combination Therapy” (Eli Lilly and Company, priority 2016, published 2019).

Experiment: Stability of the crystal form
Assay type: physicochemical
Details: room temperature and relative humidity greater than about 15%

- crystal form stability: stable crystal form
SMILES: COc1cnc(C(=O)Nc2ccc(F)c([C@]34CN(c5ncc(F)cn5)C[C@H]3CSC(N)=N4)c2)cn1 [Example 2, N-[3-[(4aR,7aS)-2-Amino-6-(5-fluoropyrimidin-2-yl)-4,4a, 5,7-tetrahydropyrrolo[3,4-d][1,3]thiazin-7a-yl]-4-fluoro-phenyl]-5-methoxy-pyrazine-2-carboxamide]
